Measured values reported in the supplement of paper PMC11061612.

Columns and labels:
Experiment in all cases: combination Emax (second highest fraction inhibited in the dose matrix, 72 h); higher = more inhibition; extreme values may be limits of the assay
[1] = system: HuP-T4 (Pancreatic Carcinoma)
Summary of the method: (§1)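 Cell lines grown in DMEM/F12 or RPMI with 10% FBS were plated in 1536-well plates and held 24 hours at 37°C, 5% CO2 before 72 hours of exposure to two-drug dose matrices, with DMSO typically at 0.2%. CellTiter-Glo 2.0 luminescence gave viability, which was converted to inhibition. Vehicle wells were set to 0 and blank wells to 1. Combination Emax is the second-highest inhibition in the matrix, and Bliss excess is the observed combination effect minus the expected EA + EB − EA·EB, where EA and EB are the single-agent effects.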

[2] = system: DoTc2-4510 (Cervical Carcinoma)
Summary of the method: as §1

[3] = system: COLO-205 (Colorectal Carcinoma)
Summary of the method: as §1

[4] = system: KELLY (Neuroblastoma)
Summary of the method: as §1

[5] = system: HT-1376 (Bladder Carcinoma)
Summary of the method: as §1

[6] = system: HCC-78 (Lung Adenocarcinoma)
Summary of the method: as §1

[7] = system: EC-GI-10 (Esophageal Squamous Cell Carcinoma)
Summary of the method: as §1

[8] = system: SK-ES-1 (Ewing's Sarcoma)
Summary of the method: as §1

[9] = system: NCI-H2085 (Non-Small Cell Lung Carcinoma)
Summary of the method: as §1

[10] = system: LS-180 (Colorectal Carcinoma)
Summary of the method: as §1

[11] = system: ME-1 (Acute Myeloid Leukemia)
Summary of the method: as §1

[12] = system: B-CPAP (Thyroid Gland Carcinoma)
Summary of the method: as §1

[13] = system: LNCaP-Clone-FGC (Prostate Carcinoma)
Summary of the method: as §1

[14] = system: CaR-1 (Colorectal Carcinoma)
Summary of the method: as §1

[15] = system: RC-K8 (B-Cell Non-Hodgkin's Lymphoma)
Summary of the method: as §1

[16] = system: HCC1806 (Breast Carcinoma)
Summary of the method: as §1

[17] = system: CCRF-CEM (T-Lymphoblastic Leukemia)
Summary of the method: as §1

[18] = system: UM-UC-3 (Bladder Carcinoma)
Summary of the method: as §1

[19] = system: Calu-3 (Lung Adenocarcinoma)
Summary of the method: as §1

[20] = system: Daoy (Other Solid Carcinomas)
Summary of the method: as §1

| Compound | combination Emax [1] | combination Emax [2] | combination Emax [3] | combination Emax [4] | combination Emax [5] | combination Emax [6] | combination Emax [7] | combination Emax [8] | combination Emax [9] | combination Emax [10] | combination Emax [11] | combination Emax [12] | combination Emax [13] | combination Emax [14] | combination Emax [15] | combination Emax [16] | combination Emax [17] | combination Emax [18] | combination Emax [19] | combination Emax [20] |
| --- | --- | --- | --- | --- | --- | --- | --- | --- | --- | --- | --- | --- | --- | --- | --- | --- | --- | --- | --- | --- |
| NC1(C(=O)N[C@@H](CCO)c2ccc(Cl)cc2)CCN(c2ncnc3[nH]ccc23)CC1 [Capivasertib] + CC(=O)c1c(C)c2cnc(Nc3ccc(N4CCNCC4)cn3)nc2n(C2CCCC2)c1=O [Palbociclib] (first compound max 10 µM, 7x7, partner max 10 µM) | 0.305 | 0.181 | 0.587 | 0.522 | 0.144 | 0.344 | 0.665 | 0.655 | 0.295 | 0.61 | 0.257 | 0.523 | 0.945 | 0.436 | 0.435 | 0.516 | 0.798 | 0.491 | 0.396 | 0.397 |
| NC1(C(=O)N[C@@H](CCO)c2ccc(Cl)cc2)CCN(c2ncnc3[nH]ccc23)CC1 [Capivasertib] + CC(C)n1c(=O)n(C)c2cnc3cc(F)c(-c4ccc(OCCCN5CCCCC5)nc4)cc3c21 [AZD1390] (first compound max 10 µM, 7x7, partner max 0.3 µM) | 0.128 | 0.234 | 0.416 | 0.256 | 0.144 | 0.259 | 0.574 | 0.448 | 0.258 | 0.33 | 0.237 | 0.261 | 0.956 | 0.365 | 0.224 | 0.267 | 0.457 | 0.311 | 0.288 | 0.33 |
| NC1(C(=O)N[C@@H](CCO)c2ccc(Cl)cc2)CCN(c2ncnc3[nH]ccc23)CC1 [Capivasertib] + CCN(CCO)CCCOc1ccc2c(Nc3cc(CC(=O)Nc4cccc(F)c4)[nH]n3)ncnc2c1 [AZD2811] (first compound max 10 µM, 7x7, partner max 1 µM) | 0.322 | 0.279 | 0.831 | 0.68 | 0.156 | 0.349 | 0.754 | 0.974 | 0.436 | 0.312 | 0.199 | 0.394 | 0.994 | 0.501 | 0.53 | 0.378 | 1 | 0.298 | 0.358 | 0.501 |
| NC1(C(=O)N[C@@H](CCO)c2ccc(Cl)cc2)CCN(c2ncnc3[nH]ccc23)CC1 [Capivasertib] + COc1nnc2ccc(N3CCC(c4ccc(OCCN5CCN(C)C(=O)[C@H]5C)cc4)CC3)nn12 [AZD5153] (first compound max 10 µM, 7x7, partner max 1 µM) | 0.442 | 0.317 | 0.808 | 0.336 | 0.108 | 0.389 | 0.543 | 0.789 | 0.6 | 0.694 | 0.402 | 0.723 | 0.993 | 0.648 | 0.761 | 0.556 | 0.905 | 0.411 | 0.749 | 0.676 |
| NC1(C(=O)N[C@@H](CCO)c2ccc(Cl)cc2)CCN(c2ncnc3[nH]ccc23)CC1 [Capivasertib] + C[C@@H]1COCCN1C2=NC(=NC(=C2)C3(CC3)[S@](=N)(=O)C)C4=C5C=CNC5=NC=C4 [AZD6738] (first compound max 10 µM, 7x7, partner max 10 µM) | 0.446 | 0.45 | 0.637 | 0.962 | 0.377 | 0.721 | 0.7 | 0.876 | 0.504 | 0.825 | 0.277 | 0.719 | 0.989 | 0.601 | 0.775 | 0.947 | 0.983 | 0.53 | 0.512 | 0.901 |
| NC1(C(=O)N[C@@H](CCO)c2ccc(Cl)cc2)CCN(c2ncnc3[nH]ccc23)CC1 [Capivasertib] + Cn1cnc2c(F)c(Nc3ccc(Br)cc3Cl)c(C(=O)NOCCO)cc21 [Selumetinib] (first compound max 10 µM, 7x7, partner max 10 µM) | 0.396 | 0.408 | 0.778 | 0.44 | 0.18 | 0.295 | 0.927 | 0.429 | 0.427 | 0.771 | 0.342 | 0.499 | 0.969 | 0.564 | 0.367 | 0.595 | 0.485 | 0.533 | 0.461 | 0.472 |
| Cc1nc(Nc2ncc(C(=O)Nc3c(C)cccc3Cl)s2)cc(N2CCN(CCO)CC2)n1 [Dasatinib] + CC(=O)Nc1cccc(-n2c(=O)n(C3CC3)c(=O)c3c(Nc4ccc(I)cc4F)n(C)c(=O)c(C)c32)c1 [Trametinib] (first compound max 2 µM, 7x7, partner max 1 µM) | 0.486 | 0.469 | 0.728 | 0.556 | 0.241 | 0.347 | 0.503 | 0.24 | 0.82 | 0.747 | 0.375 | 0.79 | 0.15 | 0.57 | 0.124 | 0.624 | 0.149 | 0.685 | 0.619 | 0.41 |
| COc1cc2ncnc(Nc3ccc(F)c(Cl)c3)c2cc1OCCCN1CCOCC1 [Gefitinib] + CC(C)n1c(=O)n(C)c2cnc3cc(F)c(-c4ccc(OCCCN5CCCCC5)nc4)cc3c21 [AZD1390] (first compound max 10 µM, 7x7, partner max 0.3 µM) | 0.178 | 0.297 | 0.135 | 0.189 | 0.177 | 0.133 | 0.642 | 0.341 | 0.225 | 0.292 | 0.199 | 0.108 | 0.089 | 0.227 | 0.105 | 0.436 | 0.054 | 0.0932 | 0.738 | 0.0924 |
| CS(=O)(=O)CCNCc1ccc(-c2ccc3ncnc(Nc4ccc(OCc5cccc(F)c5)c(Cl)c4)c3c2)o1 [Lapatinib] + C[C@@H](Oc1cc(-c2cnn(C3CCNCC3)c2)cnc1N)c1c(Cl)ccc(F)c1Cl [Crizotinib] (first compound max 10 µM, 7x7, partner max 10 µM) | 0.915 | 0.942 | 0.939 | 0.97 | 0.255 | 0.882 | 0.986 | 0.938 | 0.673 | 0.908 | 0.194 | 0.984 | 0.804 | 0.858 | 0.622 | 0.95 | 0.881 | 0.307 | 0.931 | 0.934 |
| CC(=O)c1c(C)c2cnc(Nc3ccc(N4CCNCC4)cn3)nc2n(C2CCCC2)c1=O [Palbociclib] + CC1(C)CCC(CN2CCN(c3ccc(C(=O)NS(=O)(=O)c4ccc(NCC5CCOCC5)c([N+](=O)[O-])c4)c(Oc4cnc5[nH]ccc5c4)c3)CC2)=C(c2ccc(Cl)cc2)C1 [Venetoclax] (first compound max 10 µM, 7x7, partner max 1 µM) | 0.163 | 0.0297 | 0.492 | 0.52 | 0.0784 | 0.144 | 0.387 | 0.749 | 0.167 | 0.61 | 1 | 0.237 | 0.405 | 0.0978 | 0.506 | 0.268 | 0.67 | 0.175 | 0.0931 | 0.218 |
| CC(=O)c1c(C)c2cnc(Nc3ccc(N4CCNCC4)cn3)nc2n(C2CCCC2)c1=O [Palbociclib] + Cc1c2c(nn1C)CSCc1cc(n(C)n1)CSc1cc(c3ccccc3c1)OCCCc1c(C(=O)O)n(C)c3c-2c(Cl)ccc13 [AZD5991] (first compound max 10 µM, 7x7, partner max 1 µM) | 0.245 | 0.215 | 0.497 | 0.897 | 0.216 | 0.251 | 0.543 | 0.851 | 0.167 | 0.521 | 0.693 | 0.427 | 0.5 | 0.229 | 0.316 | 0.383 | 0.732 | 0.253 | 0.219 | 0.21 |
| CC(=O)c1c(C)c2cnc(Nc3ccc(N4CCNCC4)cn3)nc2n(C2CCCC2)c1=O [Palbociclib] + Cn1cnc2c(F)c(Nc3ccc(Br)cc3Cl)c(C(=O)NOCCO)cc21 [Selumetinib] (first compound max 10 µM, 7x7, partner max 10 µM) | 0.349 | 0.117 | 0.788 | 0.626 | 0.0425 | 0.168 | 0.493 | 0.622 | 0.231 | 0.759 | 0.428 | 0.356 | 0.451 | 0.307 | 0.459 | 0.414 | 0.624 | 0.246 | 0.149 | 0.18 |
| COc1cccc(OCCCN)c1-c1cc(Nc2cnc(C#N)cn2)n[nH]1 [Prexasertib] + CCc1c2c(nc3ccc(O)cc13)-c1cc3c(c(=O)n1C2)COC(=O)[C@]3(O)CC [SN-38] (first compound max 1 µM, 7x7, partner max 0.3 µM) | 0.938 | 0.964 | 0.938 | 1 | 0.529 | 0.947 | 1 | 1 | 0.86 | 0.759 | 0.627 | 0.968 | 0.766 | 0.799 | 1 | 0.996 | 1 | 0.987 | 0.549 | 0.999 |
